Measured values published in patent US12187709B2 (Genentech, Inc., priority 2021, dated 2025).

Tests used:
Cbl-b = Cbl-b (Homo sapiens (Human), UniProt Q13191); assay: Cbl-b LCK Ub TR-FRET assay (Cbl-b Lck HTRF); type: biochemical; settings: for IC50: Cbl-b LCK Ub TR-FRET; for fold-selectivity (Cbl-b over C-cbl): ratio C-cbl Lck HTRF IC50 / Cbl-b Lck HTRF IC50
How it was run: (§1)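 After the ubiquitination reaction, detection mixture was added and plates incubated 20 min at room temperature before reading. IC50 values were calculated with wells lacking LCK as the low control and DMSO as the high control.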

c-Cbl = c-Cbl (Homo sapiens (Human), UniProt P22681); assay: C-Cbl LCK Ub TR-FRET assay (C-cbl Lck HTRF); type: biochemical
How it was run: as §1

[1] = molecular target: Human Cbl-b (residues 40-426) (Homo sapiens (Human), UniProt Q13191); assay: Cbl-b SPR assay; type: binding; settings: for Fold of selectivity: C-cbl SPR Kd vs Cbl-b SPR Kd; for Kd: SPR, 20° C.
How it was run: (§2)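 SPR, multi-cycle, 6-pt 2-fold series, blanks flanking for double referencing; capture 1300-1500 RU; contact 60 s at 40 μl/min; dissoc. 120-1200 s (~4-5 half-lives). 1:1 fit. Chaser variant: single cycle, 5 conc., top 500 nM, 120 s contact, 450 s dissociation.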

c-Cbl (residues 47-435) = c-Cbl (residues 47-435) (Homo sapiens (Human), UniProt P22681); assay: c-Cbl SPR assay; type: binding; settings: 20° C.
How it was run: as §2

Chain of c-Cbl (P22681 47-435): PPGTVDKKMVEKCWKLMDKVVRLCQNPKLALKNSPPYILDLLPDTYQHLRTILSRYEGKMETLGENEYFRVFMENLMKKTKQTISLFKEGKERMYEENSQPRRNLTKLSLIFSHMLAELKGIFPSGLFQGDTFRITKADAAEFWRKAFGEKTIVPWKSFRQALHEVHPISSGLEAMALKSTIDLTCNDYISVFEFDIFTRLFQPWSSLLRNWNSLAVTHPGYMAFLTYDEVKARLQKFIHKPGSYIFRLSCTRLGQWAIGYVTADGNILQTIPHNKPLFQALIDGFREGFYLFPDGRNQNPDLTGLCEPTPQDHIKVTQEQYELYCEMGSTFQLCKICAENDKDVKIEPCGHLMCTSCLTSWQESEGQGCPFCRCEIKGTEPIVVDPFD
Chain of c-Cbl (residues 47-435) (P22681 47-435): as above
Chain of Cbl-b (Q13191 40-426): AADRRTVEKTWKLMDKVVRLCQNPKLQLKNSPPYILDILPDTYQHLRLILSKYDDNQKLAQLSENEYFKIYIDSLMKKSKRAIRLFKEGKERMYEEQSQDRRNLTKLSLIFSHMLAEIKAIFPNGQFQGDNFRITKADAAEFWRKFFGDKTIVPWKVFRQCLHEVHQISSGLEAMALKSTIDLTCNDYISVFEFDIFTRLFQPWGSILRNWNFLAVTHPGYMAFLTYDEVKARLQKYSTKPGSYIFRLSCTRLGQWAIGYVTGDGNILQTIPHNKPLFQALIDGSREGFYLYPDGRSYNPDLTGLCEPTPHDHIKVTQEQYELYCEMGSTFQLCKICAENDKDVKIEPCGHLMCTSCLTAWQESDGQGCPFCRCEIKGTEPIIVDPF
Chain of Human Cbl-b (residues 40-426) (Q13191 40-426): as above

Row | SMILES | IC50 (Cbl-b) | fold-selectivity (Cbl-b over C-cbl) (Cbl-b) | IC50 (c-Cbl) | Fold of selectivity [1] | Kd [1] | Kd (c-Cbl (residues 47-435))
1 | Cn1cnnc1C1(c2cccc(N3Cc4c(cc(CNC5(C)CCC5)cc4C(F)(F)F)C3=O)c2)CSC1.O=CO [Compound 329, 2-(3-(3-(4-methyl-4H-1,2,4-triazol-3-yl)thietan-3-yl)phenyl)-6-(((1-methylcyclobutyl)amino)methyl)-4-(trifluoromethyl)isoindolin-1-one formate] | 11 nM | 1.8x | 19 nM | 5.7× | 3.2 nM | 19 nM
2 | C=CCNc1cc(N2Cc3c(cc(CNC4(C)CCC4)cc3C(F)(F)F)C2=O)cc([C@]2(c3nncn3C)C[C@H](OC)C2)c1 [Compound 232, 2-(3-(allylamino)-5-((1r,3r)-3-methoxy-1-(4-methyl-4H-1,2,4-triazol-3-yl)cyclobutyl)phenyl)-6-(((1-methylcyclobutyl)amino)methyl)-4-(trifluoromethyl)isoindolin-1-one] | 13 nM | 2.6x | 35 nM | 9.2× | 1.4 nM | 13 nM
3 | C=C1CC(c2cccc(N3Cc4c(cc(CNC5(C)CCC5)cc4C(F)(F)F)C3=O)c2)(c2nncn2C)C1 [Compound 18, 2-(3-(1-(4-methyl-4H-1,2,4-triazol-3-yl)-3-methylenecyclobutyl)phenyl)-6-(((1-methylcyclobutyl)amino)methyl)-4-(trifluoromethyl)-isoindolin-1-one] | 7.9 nM | (0.97x) | 7.7 nM | 3.7× | 1.5 nM | 5.6 nM
4 | CC(=O)C1CC([C@H](c2cccc(N3Cc4c(cc(CNC5(C)CCC5)cc4C(F)(F)F)C3=O)c2)c2nncn2C)C1 (single isomer, unassigned) [Compound 382] | 150 nM | 3.0x | 450 nM | 0.8× | 190 nM | 150 nM
5 | CCNc1cc(C2(c3nncn3C)CC3(COC3)C2)cc(N2Cc3c(cc(CNC4(C)CCC4)cc3C(F)(F)F)C2=O)n1 [Compound 7, 2-(6-(ethylamino)-4-(6-(4-methyl-4H-1,2,4-triazol-3-yl)-2-oxaspiro[3.3]heptan-6-yl)pyridin-2-yl)-6-(((1-methylcyclobutyl)amino)methyl)-4-(trifluoro-methyl)isoindolin-1-one] | 27 nM | (0.93x) | 25 nM | 4.4× | 1.3 nM | 5.7 nM

Now from value to compound:

Row | IC50 (Cbl-b) | fold-selectivity (Cbl-b over C-cbl) (Cbl-b) | IC50 (c-Cbl) | Fold of selectivity [1] | Kd [1] | Kd (c-Cbl (residues 47-435)) | SMILES
6 | 13 nM | 2.2x | 29 nM | 9.6× | 3.6 nM | 42 nM | Cn1cnnc1[C@H](c1cccc(N2Cc3c(cc(CNC4(C)CCC4)cc3C(F)(F)F)C2=O)c1)C1(O)COC1 (single isomer, unassigned) [Compound 147]
7 | 21 nM | 6.0x | 120 nM | 19× | 7.4 nM | 140 nM | Cn1cnnc1C1(c2cccc(N3Cc4c(cc(CNC5(C)CCC5)cc4C(F)(F)F)C3=O)c2)CC2(CC(F)(F)C2)C1 [Compound 94, 2-(3-(6,6-difluoro-2-(4-methyl-4H-1,2,4-triazol-3-yl)spiro[3.3]heptan-2-yl)phenyl)-6-(((1-methylcyclobutyl)amino)methyl)-4-(trifluoromethyl)isoindolin-1-one]
8 | 600 nM | 8.0x | 4800 nM | 15× | 360 nM | 5600 nM | COC1CC([C@H](c2cccc(N3Cc4c(cc(CNC5(C)CCC5)cc4C(F)(F)F)C3=O)c2)c2nncn2C)C1 (single isomer, unassigned) [Compound 132]
